The values below come from patent US20160237402A1, “Methods and Compositions for Ex Vivo Generation of Developmentally Competent Eggs from Germ Line Cells Using Autologous Cell Systems” (NORTHEASTERN UNIVERSITY, priority 2013, published 2016).

The test system of assay [1] is FACS-purified Fox12-DsRed-positive cells. Briefly: Estradiol and progesterone production by FACS-purified Fox12-DsRed-positive cells (ELISA of culture medium). Type of assay: cell-based, mouse. The conditions noted are these: FSH 100 ng/ml or 8-br-cAMP 1 mM; cultured 24, 48 or 72 hours; versus vehicle (PBS) control; cells isolated on day 12 of ESC differentiation. How it is done:
FIG. 5A is a graph showing estradiol production by FACS-purified Fox12-DsRed positive cells (2×10^3 cells per well), which spontaneously differentiated in embryonic stem cell cultures, maintained in culture for up to 3 days (FSH, 100 ng/ml; 8-br-cAMP, 1 mM). Data are the mean±SEM of 3 independent cultures (*, P<0.05 versus vehicle control).
FIG. 5B is a graph showing progesterone production by FACS-purified Fox12-DsRed positive cells (2×10^3 cells per well), which spontaneously differentiated in embryonic stem cell cultures, maintained in culture for up to 3 days (FSH, 100 ng/ml; 8-br-cAMP, 1 mM). Data are the mean±SEM of 3 independent cultures (*, P<0.05 versus vehicle control).
To identify and track ovarian somatic cells in differentiating ESC cultures, the expression of the early granulosa cell marker, Fox12, in differentiating ESC cultures was mapped. […] A 739 by region of the Fox12 gene promoter was identified using Genome Vista. The region was isolated from mouse genomic DNA and cloned into the pDsRed2-1 vector (Clontech, Mountain View, Calif.,) or the pLenti6 lentiviral construct containing the complete open reading frame of DsRed (Gateway Lentiviral System; Invitrogen), thus creating a DsRed expression vector under control of the Fox12 gene promoter.
Promoter activity and specificity were verified using mouse granulosa cells as a positive control and 293 cells (Invitrogen) as a negative control. To verify the Fox12 gene promoter-driven DsRed expression, undifferentiated TgOG2 ESCs were stably transfected with the Fox12-pDsRed2-1 construct via electroporation, followed by clonal selection and expansion. Alternatively, ESCs were virally transduced following initiation of differentiation using viral supernatant produced by 293 cells transfected with the Fox12-DsRed lentiviral construct (pLenti6-Fox12-DsRed). Cells were analyzed for expression of DsRed by fluorescence microscopy and isolated by fluorescence-activated cell sorting (FACS).
For FACS, differentiating ESCs were removed from the plate by either 0.25% trypsin-EDTA (prior to day 10 of differentiation) or manually scraped. […] The cells were analyzed and sorted using a FACS Aria flow cytometer (BD Biosciences, San Jose, Calif.).
Estradiol and progesterone concentrations were measured in culture medium from FACS-purified Fox12-DsRed-positive cells that had been re-plated and cultured for 24, 48 or 72 hours in the presence of PBS (vehicle), 100 ng/ml follicle stimulating hormone (FSH; NIDDK, NIH, Bethesda, Md.) or 1 mM 8-bromoadenosine-3′,5′-cyclic monophosphate (8-br-cAMP; Sigma-Aldrich). […]
(In general: A flow cytometer gives signals particle by particle.)

Assay [2] concerns OSC differentiation into oocytes. Put plainly: GCV treatment of transgenic mice with Stra8 promoter-driven HSVtk; counts of oocyte-containing primordial follicles. In kind it is in vivo. How it is done: FIGS. 2A-D are graphs that show the OSCs of aged mice lose the ability to support primordial follicle formation. Transgenic mice, ranging from 2-11 months, having an inducible “suicide gene” (herpes simplex virus thymidine kinase or HSVtk) that specifically disrupts OSC differentiation into oocytes only in the presence of the HSVtk pro-drug ganciclovir (GCV), were tested for their ability to lose and regain their oocyte reserves after activation and deactivation of the suicide gene, respectively.
Animals and treatments. Transgenic pStra8-Gfp mice with expression of green fluorescent protein (GFP) driven by the promoter of the meiosis commitment gene, stimulated by retinoic acid gene 8 (Stra8;) mice were generated as described in Imudia et al., Fertil Steril, 100:1451-1458 (2013). Transgenic mice with herpes simplex virus thymidine kinase (HSVtk) expression driven by the Stra8 promoter were generated by replacing the GFP-coding sequence in the pStra8-Gfp construct with cDNA encoding GFP-fused HSVtk and the constructs were then sent to Genoway for generation of the transgenic lines, as described (Imudia et al., Fertil Steril, 100:1451-1458 (2013). For comparative studies, wild type and transgenic siblings from breeding colonies were used in parallel to rule out any potential effect of background strain on the outcomes. For treatments, the HSVtk pro-drug, ganciclovir (GCV; Roche), was dissolved in sterile water at 10 mg/ml, and then diluted in sterile 1×-concentrated phosphate-buffered saline (PBS) for daily dosing (10 mg/kg for 21 days, intraperitoneal injection). Control animals were injected with vehicle (PBS) in parallel.
Oocyte counts. Prior to the start of PBS or GCV injections, 21 days after daily dosing with GCV, and 21 days after ceasing GCV treatment, ovaries were collected from mice at the indicated ages, fixed, embedded in paraffin, and serially sectioned for histomorphometry-based quantification of the number of oocyte-containing primordial follicles, as detailed (Jones and Krohn, J Endocrinol, 21:469-495 (1961); Johnson et al., Nature, 428:145-150 (2004); and Wang and Tilly, Cell Cycle, 9:339-349 (2010)). All samples were assessed in a completely blinded fashion, and reproducibility was independently confirmed with randomly selected slides by a second observer. In all cases, variation in counts between observers was less than 7%.

Some results are limits rather than exact numbers.

Consider follicle stimulating hormone [FSH], for which, in assay [1], the estradiol production entry is “significant increase” and the progesterone production entry is recorded as “only 8-br-cAMP was able to significantly enhance”.

Consider `Nc1ncnc2c1nc(Br)n2[C@@H]1O[C@@H]2COP(=O)(O)O[C@H]2[C@H]1O` [8-br-cAMP, 8-bromoadenosine-3′,5′-cyclic monophosphate], for which, in assay [1], the estradiol production result was “significant increase” and the progesterone production result is “significantly enhance”.

On to `Nc1nc(O)c2ncn(COC(CO)CO)c2n1` [GCV, ganciclovir], for which the “response of primordial follicle pool to GCV treatment” value in assay [2] (advanced aged mice, 10-11 months of age, 10 mg/kg daily for 21 days, intraperitoneal) was “completely refractory”. For the same compound, the “primordial follicle reserve after GCV treatment” value is on record as “reduced primordial follicle reserve” in assay [2] (middle-age adult mice, 5-6 months of age, 10 mg/kg daily for 21 days, intraperitoneal) and “reduced primordial follicle reserve” in assay [2] (young adult mice, 2-3 months of age, 10 mg/kg daily for 21 days, intraperitoneal). The “time for primordial follicle pool to regenerate back to control (PBS, vehicle) levels after ceasing GCV treatment” value in assay [2] (young adult (2-3 months) and middle-age (5-6 months) mice) is on record as not above 21 days.
